Source: patent US12351836B2, “Microhomology mediated repair of microduplication gene mutations” (UNIVERSITY OF MASSACHUSETTS, priority 2018, dated 2025)

Molecular target: PARP-1 (Homo sapiens, UniProt P09874)
Assay: PARP-1 inhibition by rucaparib: MMEJ-based repair at the HPS1 locus in HPS1 B-LCL cells treated with SpyCas9 RNP
Format: cell-based
From the text: To investigate whether nuclease-mediated collapse of a microduplication occurs via the MMEJ pathway, a DNA repair factor (PARP-1) that regulates DSB flux through this pathway was inhibited. PARP-1 influences the repair of a DSB through resection-dependent DNA repair pathways, such as MMEJ^3,16, which are in competition with the non-homologous end joining pathway (NHEJ) for DSB repair^17. Inhibition of the catalytic activity of PARP-1 by rucaparib reduces DSB flux through the MMEJ pathway, resulting in a decrease in microhomology-based deletion products in the resulting repair events^18. See, FIG. 18A. Patient-derived HPS1 B-LCL cells were treated with 10 µM or 20 μM rucaparib before and after treatment with SpyCas9 RNP to suppress MMEJ-mediated repair of DSBs. See, FIG. 12A. […] See, FIG. 12B. […] See, FIG. 12B-12D. […] See, FIG. 18.
For the PARP-1 inhibition experiments, 300,000 HPS1 patient-derived B-LCL cells were treated with 10 μM or 20 μM rucaparib camsylate (Sigma-Aldrich PZ0036) in standard growth medium for 24 h. Treated cells were electroporated with SpyCas9 RNPs following previously described protocol. Following another 24 h incubation in rucaparib-containing medium, cells were resuspended in PARP-1 inhibitor-free medium and harvested for analysis after 7 days.
The construction of the UMI-based library used a linear amplification step to incorporate UMIs within the amplicons from the target locus^15. HPS1 B-LCL cells and HEK293 Ts were harvested following nuclease treatment for genomic DNA extraction using the GenElute Mammalian Genomic DNA Miniprep Kit (Sigma GIN350).
The analysis of the UMI-tagged deep sequencing reads was adapted from a previous protocol^15. Initially, BWA (version 0.7.5) and SAMtools (version 0.1.19) were used to align each group of filtered merged-read pairs to a corresponding reference sequence, ignoring the unique molecular barcodes. Next, a custom Python and PySAM script was used to process mapped reads into counts of UMI-labelled reads for each target. The mapped reads were filtered by requiring a mapping value (MAPQ) larger than 30. […]

Sequence of PARP-1 (P09874 whole entry): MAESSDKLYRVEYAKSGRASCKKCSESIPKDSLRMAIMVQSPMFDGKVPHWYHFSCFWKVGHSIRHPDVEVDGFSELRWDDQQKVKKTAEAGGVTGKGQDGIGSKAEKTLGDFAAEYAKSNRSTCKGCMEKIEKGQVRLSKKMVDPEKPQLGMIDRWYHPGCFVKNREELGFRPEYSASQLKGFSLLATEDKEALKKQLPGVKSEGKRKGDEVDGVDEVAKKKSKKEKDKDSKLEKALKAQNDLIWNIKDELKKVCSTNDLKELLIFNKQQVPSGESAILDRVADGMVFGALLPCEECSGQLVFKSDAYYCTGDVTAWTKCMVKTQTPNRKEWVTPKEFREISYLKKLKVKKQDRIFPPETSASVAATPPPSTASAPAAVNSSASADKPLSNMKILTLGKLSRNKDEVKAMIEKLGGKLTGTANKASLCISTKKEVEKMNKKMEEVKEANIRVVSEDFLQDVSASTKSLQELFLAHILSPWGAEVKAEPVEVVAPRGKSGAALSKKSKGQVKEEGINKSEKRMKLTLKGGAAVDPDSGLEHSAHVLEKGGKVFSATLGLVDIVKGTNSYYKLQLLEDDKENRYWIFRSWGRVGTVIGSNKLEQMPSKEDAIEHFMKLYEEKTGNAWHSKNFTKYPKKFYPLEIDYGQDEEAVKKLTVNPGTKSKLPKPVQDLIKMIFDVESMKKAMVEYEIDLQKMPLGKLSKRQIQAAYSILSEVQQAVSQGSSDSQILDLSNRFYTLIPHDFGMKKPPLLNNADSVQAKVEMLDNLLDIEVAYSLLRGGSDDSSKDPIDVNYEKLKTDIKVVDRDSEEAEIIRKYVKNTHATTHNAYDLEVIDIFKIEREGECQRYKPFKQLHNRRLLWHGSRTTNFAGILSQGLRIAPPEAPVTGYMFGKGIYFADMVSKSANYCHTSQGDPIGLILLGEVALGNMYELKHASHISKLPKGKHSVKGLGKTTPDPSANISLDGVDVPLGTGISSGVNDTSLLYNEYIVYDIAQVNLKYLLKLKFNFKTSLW

16-bp deletion product (10 μM rucaparib 24 h before and after SpyCas9 RNP): around 15% | 16-bp deletion product (20 μM rucaparib 24 h before and after SpyCas9 RNP): ~6% | editing rates at the HPS1 locus upon rucaparib treatment (10 or 20 μM rucaparib): overall reduction in editing rates
SMILES: CNCc1ccc(-c2[nH]c3cc(F)cc4c3c2CCNC4=O)cc1 [rucaparib, rucaparib camsylate]
